Measurements published in ChEMBL document CHEMBL3421591, “Improved Synthesis of Biotinol-5'-AMP: Implications for Antibacterial Discovery” (ACS Med Chem Lett, 2015).
≈ marks a conversion by molar mass, not a printed value. Calls of active or inactive are those of the source. No cut-off for these calls is given here.

Legend:
Format in all cases: functional
[1] = system: Mycobacterium tuberculosis; assay: Antimicrobial activity against pyrazinamide-resistant Mycobacterium tuberculosis BCG(SI) after 16 to 20 hrs by two-fold microdilution broth method
[2] = system: Mycobacterium tuberculosis; assay: Antimicrobial activity against rifampicin-resistant Mycobacterium tuberculosis Who-185 after 16 to 20 hrs by two-fold microdilution broth method
[3] = system: Mycobacterium tuberculosis; assay: Antimicrobial activity against isoniazid-resistant Mycobacterium tuberculosis Who-185 after 16 to 20 hrs by two-fold microdilution broth method

Question: How did the MIC [1] turn out when Nc1ncnc2c1ncn2[C@@H]1O[C@H](CNS(=O)(=O)NC(=O)CCCC[C@@H]2SC[C@@H]3NC(=O)N[C@@H]32)[C@@H](O)[C@H]1O was run?
Answer: 0.1 µg/mL (≈ 0.175 µM)

Question: What about the MIC [2] of the same compound?
Answer: 0.1 µg/mL (≈ 0.175 µM)

Question: What about the MIC [3] of the same compound?
Answer: 0.1 µg/mL (≈ 0.175 µM)

Question: Which MIC [1] does the source give for Nc1ncnc2c1ncn2[C@@H]1O[C@H](COP(=O)(O)OCCCCC[C@@H]2SC[C@@H]3NC(=O)N[C@@H]32)[C@@H](O)[C@H]1O here?
Answer: inactive

Question: What about the MIC [2] of the same compound?
Answer: 2.5 µg/mL (≈ 4.47 µM)

Question: And the MIC [3]?
Answer: 0.5 µg/mL (≈ 0.894 µM)
